Data from patent publication US9957274B2, “Indane inhibitors of EED and methods of their use” (AbbVie Inc., priority 2016, dated 2018).
Read-outs that look alike come from different tables or passages of the source.

Assays:
[1] = tested on: H3K27me3 in OCILY19 cells; test: H3K27me3 AlphaLISA assay in OCILY19 cells; type: cell-based; settings: Homo sapiens, OCI-LY19, 144 h, 6 days with compound, read-out: OCILY-19 IC50
Experimental: (§1) 5,000 cells were plated into each well of 96-well Corning CellBing cell culture plates and incubated overnight at 37° C. in a humidified CO2 incubator. […] The cell culture plates were then incubated for 6 more days. H3K27me3 AlphaLISA assay was performed on the cell culture samples by using AlphaLISAR® H3K27me3 Cellular Detection Kit (PerkinElmer) and 96-well white half-area plates (PerkinElmer).

[2] = tested on: H3K27me3 in G401 cells; test: H3K27me3 AlphaLISA assay in G401 cells; type: cell-based; settings: Homo sapiens, G-401, 144 h, 6 days with compound
Experimental: as §1, with “G401 cells (ATCC catalog # CRL-1441) were maintained in McCoy's 5a medium (ATCC) supplemented with 10% heat-inactivated FBS (HyClone) at 37° C. in a humidified CO2 incubator. OCILY19 cells (DSMZ catalog #ACC 528) were maintained in IMDM (Invitrogen) supplemented with 10% human serum (Sigma) at 37° C. in a humidified CO2 incubator. 5,000” for “5,000”

[3] = target: EED (Homo sapiens, UniProt O75530); test: EED TR-FRET Binding Assay (modified LanthaScreen competition assay)
In short: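 Competition binding in a modified LanthaScreen format, in 20 mM Tris-HCl pH 7.5, 200 mM NaCl, 0.01% Tween-20, 10 uM DTT and 0.05% BSA. Reactions ran 1 hour at 25° C before TR-FRET detection.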

[4] = tested on: Pfeiffer cells; test: CTG cell viability assay (CellTiter-Glo); type: cell-based; settings: Homo sapiens, 240 h
Experimental: 1,000 cells were plated into each well of 96-well Corning CellBing cell culture plates and incubated overnight at 37° C. in a humidified CO2 incubator. […] The cell culture plates were then incubated for 10 more days. CTG cell viability assay was performed on the cell culture samples by using CellTiter-Glo® Luminescent Cell Viability Assay Kit (Promega).

[5] = Pfeiffer cells, 10 days with compound, CellTiter-Glo, read-out: Cell Proliferation IC50
[6] = Pfeiffer, read-out: Cell Proliferation IC50 (uM)

Sequence of EED (O75530 whole entry): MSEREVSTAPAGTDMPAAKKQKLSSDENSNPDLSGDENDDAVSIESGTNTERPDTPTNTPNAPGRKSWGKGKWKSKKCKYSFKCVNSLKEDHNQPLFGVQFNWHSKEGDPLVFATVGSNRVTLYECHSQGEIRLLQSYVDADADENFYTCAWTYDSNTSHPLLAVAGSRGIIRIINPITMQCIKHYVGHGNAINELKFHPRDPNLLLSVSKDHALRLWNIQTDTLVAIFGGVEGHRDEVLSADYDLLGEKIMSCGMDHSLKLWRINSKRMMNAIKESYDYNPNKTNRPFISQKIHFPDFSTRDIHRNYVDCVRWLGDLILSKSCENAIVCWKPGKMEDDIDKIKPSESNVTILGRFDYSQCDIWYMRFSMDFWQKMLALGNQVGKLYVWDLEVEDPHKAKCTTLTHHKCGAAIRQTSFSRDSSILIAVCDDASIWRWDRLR

Structure (SMILES) | IC50 [1] [nM] | IC50 [2] [nM] | IC50 [3] [nM] | IC50 [4, 5] [µM] | IC50 [4, 6] [µM]
CC(=O)N1CCN(c2ccc([C@H]3CN(C4CCc5cccc(F)c54)C[C@@H]3N(C)C)cc2)CC1 (stereo partly drawn) [Example 43, 1-(4-{4-[(3S,4R)-4-(dimethylamino)-1-(7-fluoro-2,3-dihydro-1H-inden-1-yl)pyrrolidin-3-yl]phenyl}piperazin-1-yl)ethan-1-one] | 50.4 | 32.6 | 0.297 |  | 
CN(C)[C@H]1CN(C2CCc3cccc(F)c32)C[C@@H]1C1CCN(c2ccc(C(N)=O)cc2)CC1 (mixture of isomers) [Example 166, rac-4-{4-[(3S,4R)-4-(dimethylamino)-1-(7-fluoro-2,3-dihydro-1H-inden-1-yl)pyrrolidin-3-yl]piperidin-1-yl}benzamide] | 275 | 228 | 0.454 | 0.129 | 
CN(C)C(=O)Cn1cc(-c2ccc([C@@H]3CN(C4CCc5cccc(F)c54)C[C@H]3N(C)C)cn2)cn1 (mixture of isomers) [Example 159, rac-2-(4-{5-[(3R,4S)-4-(dimethylamino)-1-(7-fluoro-2,3-dihydro-1H-inden-1-yl)pyrrolidin-3-yl]pyridin-2-yl}-1H-pyrazol-1-yl)-N,N-dimethylacetamide] | 237 | 158 | 1.14 | 0.246 | 
CN(C)[C@H]1CN(C2CCc3cccc(F)c32)C[C@@H]1c1ccc(N2CCN(S(C)(=O)=O)CC2)cc1 (mixture of isomers) [Example 1, (3R,4S)-1-(7-fluoro-2,3-dihydro-1H-inden-1-yl)-4-{4-[4-(methanesulfonyl)piperazin-1-yl]phenyl}-N,N-dimethylpyrrolidin-3-amine] | 62.1 | 55.5 |  |  | 0.0725
CN(C)[C@H]1CN(C2CCc3cccc(F)c32)C[C@@H]1c1ccc(-c2cnn(C)c2)cc1 (mixture of isomers) [Example 70, rac-(3R,4S)-1-(7-fluoro-2,3-dihydro-1H-inden-1-yl)-N,N-dimethyl-4-[4-(1-methyl-1H-pyrazol-4-yl)phenyl]pyrrolidin-3-amine] | 248 | 129 | 0.853 | 0.266 | 
CN(C)[C@@H]1CN(C2CCc3cccc(F)c32)C[C@H]1c1ccc(N2CCN(c3ccncn3)CC2)cc1 (mixture of isomers) [Example 74, rac-(3S,4R)-1-(7-fluoro-2,3-dihydro-1H-inden-1-yl)-N,N-dimethyl-4-{4-[4-(pyrimidin-4-yl)piperazin-1-yl]phenyl}pyrrolidin-3-amine] | 363 | 185 | 0.633 | 0.107 | 
CN(C)[C@H]1CN(C2CCc3cccc(F)c32)C[C@@H]1C1CCN(c2ncc(C(N)=O)s2)CC1 (mixture of isomers) [Example 162, rac-2-{4-[(3S,4R)-4-(dimethylamino)-1-(7-fluoro-2,3-dihydro-1H-inden-1-yl)pyrrolidin-3-yl]piperidin-1-yl}-1,3-thiazole-5-carboxamide] | 492 | 291 | 0.646 | 0.216 | 
CN(C)[C@H]1CN(C2CCc3cccc(F)c32)C[C@@H]1C1CCN(c2ccccn2)CC1 (mixture of isomers) [Example 152, rac-(3R,4S)-1-(7-fluoro-2,3-dihydro-1H-inden-1-yl)-N,N-dimethyl-4-[1-(pyridin-2-yl)piperidin-4-yl]pyrrolidin-3-amine] | 1790 | 476 | 2.04 | 0.804 | 
CN(C)[C@H]1CN([C@@H]2C[C@H](F)c3cccc(F)c32)C[C@@H]1c1ccc(S(C)(=O)=O)cc1 (mixture of isomers) [Example 31, rac-(3R,4S)-1-[(1R,3S)-3,7-difluoro-2,3-dihydro-1H-inden-1-yl]-4-[4-(methanesulfonyl)phenyl]-N,N-dimethylpyrrolidin-3-amine] | 3450 |  | 8.19 | 0.754 | 
CN(C)[C@H]1CN([C@H]2CCc3cccc(F)c32)C[C@@H]1c1ccc(S(C)(=O)=O)cc1 [Example 11, (3R,4S)-1-[(1S)-7-fluoro-2,3-dihydro-1H-inden-1-yl]-4-[4-(methanesulfonyl)phenyl]-N,N-dimethylpyrrolidin-3-amine] | 171 |  | 23.1 | 0.301 | 
CN(C)[C@H]1CN(C2CCc3cccc(F)c32)C[C@@H]1c1ccc(N2CCN(S(C)(=O)=O)CC2)cc1 (mixture of isomers) [Example 2, rac-(3R,4S)-1-(7-fluoro-2,3-dihydro-1H-inden-1-yl)-4-{4-[4-(methanesulfonyl)piperazin-1-yl]phenyl}-N,N-dimethylpyrrolidin-3-amine] | 140 | 99.2 |  |  | 0.126

Second part, led by results:

IC50 [1] [nM] | IC50 [2] [nM] | IC50 [3] [nM] | Structure (SMILES) | IC50 [4, 5] [µM] | IC50 [4, 6] [µM]
944 | 449 | 2.85 | COC(=O)c1ccc([C@@H]2CN(C3CCc4cccc(F)c43)C[C@H]2N(C)C)cc1 (mixture of isomers) [Example 22, rac-methyl 4-[(3R,4S)-4-(dimethylamino)-1-(7-fluoro-2,3-dihydro-1H-inden-1-yl)pyrrolidin-3-yl]benzoate] | 0.422 | 
27.1 | 56.4 | 0.347 | CN(C)[C@H]1CN(C2CCc3cccc(F)c32)C[C@@H]1c1cn(C)c2c(C(=O)N3CC(O)C3)cccc12 (stereo partly drawn) [Example 105, {3-[(3S,4R)-4-(dimethylamino)-1-(7-fluoro-2,3-dihydro-1H-inden-1-yl)pyrrolidin-3-yl]-1-methyl-1H-indol-7-yl}(3-hydroxyazetidin-1-yl)methanone] | 0.039 | 
379 | 225 | 1.05 | CN(C)[C@H]1CN(C2CCc3cccc(F)c32)C[C@@H]1c1cn(C)c2c(C(=O)N3CC(S(C)(=O)=O)C3)cccc12 (mixture of isomers) [Example 110, rac-{3-[(3S,4R)-4-(dimethylamino)-1-(7-fluoro-2,3-dihydro-1H-inden-1-yl)pyrrolidin-3-yl]-1-methyl-1H-indol-7-yl}[3-(methanesulfonyl)azetidin-1-yl]methanone] | 0.111 | 
1760 | 244 | 4.77 | CN(C)[C@@H]1CN(C2CCc3cccc(F)c32)C[C@H]1c1ccc(Br)cc1 (mixture of isomers) [Example 6, rac-(3S,4R)-4-(4-bromophenyl)-1-(7-fluoro-2,3-dihydro-1H-inden-1-yl)-N,N-dimethylpyrrolidin-3-amine] | 3.3 | 
293 | 212 | 1.41 | CN(C)[C@H]1CN(C2CCc3cccc(F)c32)C[C@@H]1c1nn(C)c2ccccc12 (mixture of isomers) [Example 156, rac-(3R,4S)-1-(7-fluoro-2,3-dihydro-1H-inden-1-yl)-N,N-dimethyl-4-(1-methyl-1H-indazol-3-yl)pyrrolidin-3-amine] | 0.375 | 
497 | 84 | 1.08 | CN(C)[C@H]1CN(C2CCc3cccc(F)c32)C[C@@H]1c1cn(C)c2cc(C(=O)N3CC(O)C3)ccc12 (mixture of isomers) [Example 107, rac-{3-[(3S,4R)-4-(dimethylamino)-1-(7-fluoro-2,3-dihydro-1H-inden-1-yl)pyrrolidin-3-yl]-1-methyl-1H-indol-6-yl}(3-hydroxyazetidin-1-yl)methanone] | 0.284 | 
214 | 120 | 1.99 | CN(C)[C@H]1CN(C2CCc3cccc(F)c32)C[C@@H]1c1cn(C)c2c(C(=O)N3CCNCC3)cccc12 (mixture of isomers) [Example 119, rac-{3-[(3S,4R)-4-(dimethylamino)-1-(7-fluoro-2,3-dihydro-1H-inden-1-yl)pyrrolidin-3-yl]-1-methyl-1H-indol-7-yl}(piperazin-1-yl)methanone] | 0.247 | 
203 |  | 1.07 | CN1CCN(C(=O)c2cccc3c([C@H]4CN(C5CCc6cccc(F)c65)C[C@@H]4N(C)C)cn(C)c23)CC1=O (mixture of isomers) [Example 125, rac-4-{3-[(3S,4R)-4-(dimethylamino)-1-(7-fluoro-2,3-dihydro-1H-inden-1-yl)pyrrolidin-3-yl]-1-methyl-1H-indole-7-carbonyl}-1-methylpiperazin-2-one] | 0.268 | 
556 |  | 1.39 | CN1CCN(c2ccc([C@H]3CN(C4CCc5cccc(F)c54)C[C@@H]3N(C)C)cc2)CC1=O (mixture of isomers) [Example 56, rac-4-{4-[(3S,4R)-4-(dimethylamino)-1-(7-fluoro-2,3-dihydro-1H-inden-1-yl)pyrrolidin-3-yl]phenyl}-1-methylpiperazin-2-one] | 0.145 | 
